Where two headings read alike, the source gives them in different places.

We go through 16 molecules from patent publication US20250129069A1, “TRIAZOLO WRN INHIBITORS” (Nimbus Wadjet, Inc., priority 2023, published 2025).

The test system of test [1] is p21 induction in HCT 116 cells. Put plainly: p21 induction in cells (In-Cell Western, p21/GAPDH ratio). Format: cell-based. The note with it: 24 h compound incubation, read-out: p21_EC50. The method in brief:
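EC50 values come from nonlinear fits of percent activation, defined by the 800/700 nm p21-to-GAPDH ratio scaled between DMSO (low) and internal WRN inhibitor (high) controls. In-Cell Western read after 24 h compound exposure of HCT 116 cells at 37° C. Duplicate 11-point series, 2-fold steps, usually starting at 10 μM.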

In test [2] the target is human Werner helicase (WRN, amino acids 517-1235 with L1074F point mutation) (Homo sapiens (Human), UniProt Q14191, L1074F). Nature of the test: WRN (BV08) ADP-Glo assay. Format: biochemical. The settings on record: human WRN (aa 517-1235, L1074F), read-out: ADP-Glo_hWRN_IC50. The method, boiled down:
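ADP-Glo luminescence read after 60 min, 25 °C reaction of 0.15 nM WRN (517-1235, L1074F, Sf9-expressed, tag removed) with 0.1 nM DNA duplex and 5 μM ATP, following 15 min compound preincubation; 20 mM Bicine pH 7.5, 1% DMSO. IC50 from 3- or 4-parameter fit of % inhibition.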
Background: In ADP-Glo the light output rises with the ADP produced.

human Werner helicase (WRN, amino acids 517-1235 with L1074F point mutation), sequence (Q14191 other isoform, or with tags, fused parts or gaps L1074F (already in the parent)): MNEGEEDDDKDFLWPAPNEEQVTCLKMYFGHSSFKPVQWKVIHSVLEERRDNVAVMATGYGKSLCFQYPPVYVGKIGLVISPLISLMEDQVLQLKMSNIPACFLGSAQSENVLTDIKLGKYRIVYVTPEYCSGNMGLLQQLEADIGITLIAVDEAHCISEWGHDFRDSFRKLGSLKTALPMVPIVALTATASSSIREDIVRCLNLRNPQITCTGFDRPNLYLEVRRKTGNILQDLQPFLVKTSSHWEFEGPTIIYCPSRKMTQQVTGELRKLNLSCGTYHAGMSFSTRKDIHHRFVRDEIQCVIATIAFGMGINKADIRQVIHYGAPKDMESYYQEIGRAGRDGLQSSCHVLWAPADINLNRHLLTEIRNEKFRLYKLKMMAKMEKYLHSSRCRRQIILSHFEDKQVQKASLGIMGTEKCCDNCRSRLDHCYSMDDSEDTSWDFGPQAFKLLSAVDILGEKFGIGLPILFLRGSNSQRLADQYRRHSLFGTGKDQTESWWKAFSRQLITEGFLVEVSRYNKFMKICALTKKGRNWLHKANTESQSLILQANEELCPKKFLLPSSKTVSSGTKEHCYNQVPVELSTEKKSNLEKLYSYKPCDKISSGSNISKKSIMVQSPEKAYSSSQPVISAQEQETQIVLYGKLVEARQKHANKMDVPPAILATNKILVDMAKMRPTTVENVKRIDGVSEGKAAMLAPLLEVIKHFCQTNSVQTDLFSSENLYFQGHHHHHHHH

On to `CCc1c(N2CCN(C(=O)c3c(OC)ncc(C)c3O)[C@H]3CC[C@@H]32)c(=O)c2nn(C3=CCOCC3)nc2n1CC(=O)Nc1ccc(C(F)(F)F)cc1Cl` [Compound I-23, N-(2-chloro-4-(trifluoromethyl)phenyl)-2-(2-(3,6-dihydro-2H-pyran-4-yl)-5-ethyl-6-((1S,6S)-5-(4-hydroxy-2-methoxy-5-methylnicotinoyl)-2,5-diazabicyclo[4.2.0]octan-2-yl)-7-oxo-2,7-dihydro-4H-[1,2,3]triazolo[4,5-b]pyridin-4-yl)acetamide], for which the EC50 in test [1] (Homo sapiens) was no more than 500 nM. Further, the IC50 in test [2] was no more than 5 nM.
As to `CCc1c(N2CCN(C(=O)c3c(OC)ncc(COC)c3O)CC2)c(=O)c2nn(-c3ccnc(OC)c3)nc2n1CC(=O)NC12CC(C(C)C)(C1)C2` [Compound I-50, 2-(5-ethyl-6-{4-[4-hydroxy-2-methoxy-5-(methoxymethyl)pyridine-3-carbonyl]piperazin-1-yl}-2-(2-methoxypyridin-4-yl)-7-oxo-2H,4H,7H-[1,2,3]triazolo[4,5-b]pyridin-4-yl)-N-[3-(propan-2-yl)bicyclo[1.1.1]pentan-1-yl]acetamide], the EC50 in test [1] (Homo sapiens) is 2000 to 5000 nM. Further, in test [2], the IC50 lay within 5 to 50 nM.
On the same counts, the results for `CCc1c(N2CCN(C(=O)c3c(OC)ncc(C)c3O)CC2)c(=O)c2nn(-c3ccnc(OC)c3)nc2n1CC(=O)NC1CC2(CCCC2)C1` [Compound I-99, 2-{5-ethyl-6-[4-(4-hydroxy-2-methoxy-5-methylpyridine-3-carbonyl)piperazin-1-yl]-2-(2-methoxypyridin-4-yl)-7-oxo-2H,4H,7H-[1,2,3]triazolo[4,5-b]pyridin-4-yl}-N-{spiro[3.4]octan-2-yl}acetamide] are 500 to 2000 nM and 5 to 50 nM.
On the same counts, the results for `CCc1c(N2CCN(C(=O)c3c(OC)ncc(C)c3O)CC2)c(=O)c2nn(-c3ccnc(OC)c3)nc2n1CC(=O)NC1CC2(C1)CC(F)(F)C2` [Compound I-104, N-{6,6-difluorospiro[3.3]heptan-2-yl}-2-{5-ethyl-6-[4-(4-hydroxy-2-methoxy-5-methylpyridine-3-carbonyl)piperazin-1-yl]-2-(2-methoxypyridin-4-yl)-7-oxo-2H,4H,7H-[1,2,3]triazolo[4,5-b]pyridin-4-yl}acetamide] are greater than 5000 nM and 50 to 100 nM.
On the same counts, the results for `CCc1c(N2CCN(C(=O)c3ncnc(C)c3O)[C@H]3CC[C@@H]32)c(=O)c2nn(-c3ccnc(OC)c3)nc2n1CC(=O)NC1CC2(CCCC2)C1` [Compound I-89, 2-{5-ethyl-6-[(1S,6S)-5-(5-hydroxy-6-methylpyrimidine-4-carbonyl)-2,5-diazabicyclo[4.2.0]octan-2-yl]-2-(2-methoxypyridin-4-yl)-7-oxo-2H,4H,7H-[1,2,3]triazolo[4,5-b]pyridin-4-yl}-N-{spiro[3.4]octan-2-yl}acetamide] are no more than 500 nM and 5 to 50 nM.
Consider `CCc1c(N2CCN(C(=O)c3c(OC)ncc(C)c3O)[C@H]3CC[C@@H]32)c(=O)c2nn(-c3ccnc(C)c3)nc2n1CC(=O)NC12CC(C3CC3)(C1)C2` [Compound I-74, N-{3-cyclopropylbicyclo[1.1.1]pentan-1-yl}-2-{5-ethyl-6-[(1S,6S)-5-(4-hydroxy-2-methoxy-5-methylpyridine-3-carbonyl)-2,5-diazabicyclo[4.2.0]octan-2-yl]-2-(2-methylpyridin-4-yl)-7-oxo-2H,4H,7H-[1,2,3]triazolo[4,5-b]pyridin-4-yl}acetamide], for which the EC50 in test [1] (Homo sapiens) is no more than 500 nM. The IC50 in test [2] fell in the range of 5 to 50 nM.
`CCc1c(N2CCN(C(=O)c3ncnc(C)c3O)[C@H]3CC[C@@H]32)c(=O)c2nn(-c3ccnc(OC)c3)nc2n1CC(=O)NC1CC2(CC(F)C2)C1` (stereo partly drawn) [Compound I-47, 2-{5-ethyl-6-[(1S,6S)-5-(5-hydroxy-6-methylpyrimidine-4-carbonyl)-2,5-diazabicyclo[4.2.0]octan-2-yl]-2-(2-methoxypyridin-4-yl)-7-oxo-2H,4H,7H-[1,2,3]triazolo[4,5-b]pyridin-4-yl}-N-{6-fluorospiro[3.3]heptan-2-yl}acetamide]: the EC50 in test [1] (Homo sapiens) is 500 to 2000 nM. Also, the IC50 in test [2] is 5 to 50 nM.
Take `CCc1c(N2CCN(C(=O)c3cccc4ccoc34)[C@H]3CC[C@@H]32)c(=O)c2nn(-c3ccnc(OC)c3)nc2n1CC(=O)Nc1ccc(C(F)(F)F)cc1Cl` [Compound I-119, 2-{6-[(1S,6S)-5-(1-benzofuran-7-carbonyl)-2,5-diazabicyclo[4.2.0]octan-2-yl]-5-ethyl-2-(2-methoxypyridin-4-yl)-7-oxo-2H,4H,7H-[1,2,3]triazolo[4,5-b]pyridin-4-yl}-N-[2-chloro-4-(trifluoromethyl)phenyl]acetamide]: the EC50 in test [1] (Homo sapiens) is greater than 5000 nM. In addition, the IC50 in test [2] fell in the range of 5 to 50 nM.
For `CCc1c(N2CCN(C(=O)c3ncnc(C)c3O)[C@H]3CC[C@@H]32)c(=O)c2nn(-c3cnn(C4CC4)c3)nc2n1CC(=O)NC12CC(C(C)C)(C1)C2` [Compound I-25, 2-(2-(1-cyclopropyl-1H-pyrazol-4-yl)-5-ethyl-6-((1S,6S)-5-(5-hydroxy-6-methylpyrimidine-4-carbonyl)-2,5-diazabicyclo[4.2.0]octan-2-yl)-7-oxo-2,7-dihydro-4H-[1,2,3]triazolo[4,5-b]pyridin-4-yl)-N-(3-isopropylbicyclo[1.1.1]pentan-1-yl)acetamide] the same measures were no more than 500 nM and 5 to 50 nM.
On the same counts, the results for `CCc1c(N2CCN(C(=O)c3ncnc(C)c3O)[C@H]3CC[C@@H]32)c(=O)c2nn(C3CC3)nc2n1CC(=O)Nc1ccc(C(F)(F)F)cc1Cl` [Compound I-153, N-[2-chloro-4-(trifluoromethyl)phenyl]-2-{2-cyclopropyl-5-ethyl-6-[(1S,6S)-5-(5-hydroxy-6-methylpyrimidine-4-carbonyl)-2,5-diazabicyclo[4.2.0]octan-2-yl]-7-oxo-2H,4H,7H-[1,2,3]triazolo[4,5-b]pyridin-4-yl}acetamide] are no more than 500 nM and no more than 5 nM.
On the same counts, the results for `CCc1c(N2CCN(C(=O)c3ncnc(C)c3O)[C@H]3CC[C@@H]32)c(=O)c2nn(-c3ccnc(OC)c3)nc2n1CC(=O)NC12CC(C(C)C)(C1)C2` [Compound I-14, 2-(5-ethyl-6-((1S,6S)-5-(5-hydroxy-6-methylpyrimidine-4-carbonyl)-2,5-diazabicyclo[4.2.0]octan-2-yl)-2-(2-methoxypyridin-4-yl)-7-oxo-2,7-dihydro-4H-[1,2,3]triazolo[4,5-b]pyridin-4-yl)-N-(3-isopropylbicyclo[1.1.1]pentan-1-yl)acetamide] are no more than 500 nM and 5 to 50 nM.
For `CCc1c(N2CCN(C(=O)c3c(OC)ncc(C)c3O)CC2)c(=O)c2nn(-c3ccnc(OC)c3)nc2n1CC(=O)NC1CC2(C1)CC(C)(C)C2` [Compound I-105, N-{6,6-dimethylspiro[3.3]heptan-2-yl}-2-{5-ethyl-6-[4-(4-hydroxy-2-methoxy-5-methylpyridine-3-carbonyl)piperazin-1-yl]-2-(2-methoxypyridin-4-yl)-7-oxo-2H,4H,7H-[1,2,3]triazolo[4,5-b]pyridin-4-yl}acetamide], in test [1] (Homo sapiens), the EC50 is greater than 5000 nM. The IC50 in test [2] fell in the range of 5 to 50 nM.
With `CCc1c(N2CCN(C(=O)c3ncnc(C)c3O)[C@H]3CC[C@@H]32)c(=O)c2nn(C3=CCOCC3)nc2n1CC(=O)NC12CC(C(C)C)(C1)C2` [Compound I-49, 2-[2-(3,6-dihydro-2H-pyran-4-yl)-5-ethyl-6-[(1S,6S)-5-(5-hydroxy-6-methylpyrimidine-4-carbonyl)-2,5-diazabicyclo[4.2.0]octan-2-yl]-7-oxo-2H,4H,7H-[1,2,3]triazolo[4,5-b]pyridin-4-yl]-N-[3-(propan-2-yl)bicyclo[1.1.1]pentan-1-yl]acetamide], the EC50 in test [1] is no more than 500 nM. The IC50 in test [2] was 5 to 50 nM.
Consider `CCc1c(N2CCN(C(=O)c3ccc4cccc(O)c4n3)[C@H]3CC[C@@H]32)c(=O)c2nn(C3=CCOCC3)nc2n1CC(=O)NC12CC(C(C)C)(C1)C2` [Compound I-158, 2-[2-(3,6-dihydro-2H-pyran-4-yl)-5-ethyl-6-[(1S,6S)-5-(8-hydroxyquinoline-2-carbonyl)-2,5-diazabicyclo[4.2.0]octan-2-yl]-7-oxo-2H,4H,7H-[1,2,3]triazolo[4,5-b]pyridin-4-yl]-N-[3-(propan-2-yl)bicyclo[1.1.1]pentan-1-yl]acetamide], for which the EC50 in test [1] (Homo sapiens) is no more than 500 nM. Further, in test [2], the IC50 fell in the range of 5 to 50 nM.
On the same counts, the results for `CCc1c(N2CCN(C(=O)c3ncnc(C)c3O)[C@H]3CC[C@@H]32)c(=O)c2nn(-c3ccnc(OC)c3)nc2n1CC(=O)NC12CC(C3CCCC3)(C1)C2` [Compound I-195, N-{3-cyclopentylbicyclo[1.1.1]pentan-1-yl}-2-{5-ethyl-6-[(1S,6S)-5-(5-hydroxy-6-methylpyrimidine-4-carbonyl)-2,5-diazabicyclo[4.2.0]octan-2-yl]-2-(2-methoxypyridin-4-yl)-7-oxo-2H,4H,7H-[1,2,3]triazolo[4,5-b]pyridin-4-yl}acetamide] are no more than 500 nM and no more than 5 nM.
For `CCc1c(N2CCN(C(=O)c3ncnc(C)c3O)[C@H]3CC[C@@H]32)c(=O)c2nn(-c3ccnc(C)c3)nc2n1CC(=O)NC12CC(C3CC3)(C1)C2` [Compound I-19, N-(3-cyclopropylbicyclo[1.1.1]pentan-1-yl)-2-(5-ethyl-6-((1S,6S)-5-(5-hydroxy-6-methylpyrimidine-4-carbonyl)-2,5-diazabicyclo[4.2.0]octan-2-yl)-2-(2-methylpyridin-4-yl)-7-oxo-2,7-dihydro-4H-[1,2,3]triazolo[4,5-b]pyridin-4-yl)acetamide] the same measures were no more than 500 nM and 5 to 50 nM.
